By EC50 is commonly meant the concentration that produces a half-maximal response. High values mean weaker potency, low ones greater potency.

Format in all cases: cell-based
The subject of experiment [1] is ERK phosphorylation in primary rat astrocytes. The experiment is described as follows: ERK phosphorylation in primary rat astrocytes (MSD pERK assay). Particulars: Astrocyte, 10 min, 10-minute exposure, mean of n=3. As for the experimental part:
(§1) For the experiments using rat primary astrocytes, eight-point concentration-response curves were generated for AKT and ERK phosphorylation in primary rat astrocytes cultures in response to a 10-minute treatment with ozanimod (100 nM-46 pM), Compound 3 (10 nM-5 pM), Compound 1 (10 nM-5 pM), or FTY720-P (10 nM-5 pM). Phosphorylation of AKT and ERK was quantified using Meso Scale Discovery assay kits (MSD Mutli-Spot Phopho-AKT (Ser473) Assay Kit and MSD Multi-Spot MAP Kinase Phosphoprotein Assay Whole Cell Lysate Kit) and imaging platform. AKT and ERK phosphorylation within treated astrocytes were assessed as the mean change in signal intensity compared to DMSO vehicle and the half maximal effective concentration (EC50) was determined using non-linear regression.
(§2) Embryonic day18 (E18) rat cortices were purchased from BrainBits LLC. (Springfield, Ill.) and were cultured according to the supplier's protocol. Briefly, cortices were incubated at 37° C. for 10 minutes in activated papain solution before trituration in hibernation medium containing B27 supplement using a modified siliconized glass Pasteur pipette. The cell suspension was centrifuged at 1100×g for 1 minute at room temperature (RT). The cell pellet was then resuspended in NbAstro medium (BrainBits LLC.) and the live cell density was assessed using a cell counter. Primary cells were plated at a density of 7500 cells/cm2 in T75 tissue culture flasks coated with poly-D-lysine (PDL) in a total volume of 12 mL of NbAstro media, and incubated for 10-14 days at 37° C. 5% CO2. After 10-14 days, primary astrocytes in passage 0 (P0) that had reached confluency in the T75 flasks were detached using TrypLE detachment reagent, pelleted at 300×g, and plated into poly-d-lysine coated T225 flasks in 20 mL of NbAstro media, and incubated for another 7 days at 37° C. 5% CO2. After 7 days, primary P1 astrocytes in confluent T225 flasks were detached using TrypLE detachment reagent, pelleted at 300×g, and plated intopoly-d-lysine coated 96-well plates at 10,000 cells per well in 200 μL of NbAstro media, and incubated for 7 days at 37° C. 5% CO2. After 7 days, P2 primary astrocytes were utilized for pAKT and pERK assays.
The pERK (phosphorylated ERK)/pMAPkinase assay was performed according to the manufacturer's protocol. Briefly, MSD pERK/pMAPkinase plates were blocked for 1-2 hours by adding 150 μL of blocker A prepared in 1× Tris wash buffer. […] Following antibody incubation, plates were washed three times with 150 μL of 1× Tris wash buffer and 1× read buffer (150 μL/well) was added. Finally, the plates were read in the MSD imager platform to assess the pERK levels.
(§3) AKT and ERK phosphorylation data were analyzed by non-linear regression (GraphPad Prism, version 6) to determine the EC50 values.

The test system of experiment [2] is AKT phosphorylation in primary rat astrocytes. The experiment is described as follows: AKT phosphorylation in primary rat astrocytes (MSD pAKT assay). Particulars: Astrocyte, 10 min, 10-minute exposure, mean of n=4. The procedure: as §1, §2
The pAKT (phosphorylated AKT) assay was performed according to the manufacturer's protocol. Briefly, MSD pAKT plates were blocked for 1-2 hours by adding 150 μL of blocker A prepared in 1× Tris wash buffer. […] Following antibody incubation, plates were washed three times with 150 μL of 1× Tris wash buffer and 1× read buffer (150 μL/well) was added. Finally, plates were read in the MSD imager platform to assess pAKT levels.
as §3

In experiment [3] the test system is ERK phosphorylation in primary human astrocytes. Nature of the experiment: ERK phosphorylation in primary human cortical astrocytes (AlphaLISA SureFire Ultra). Particulars: Astrocyte, 10 min, 10-minute exposure, n=3-5. As for the experimental part:
For the experiments using mouse and human primary astrocytes, ten-point concentration-response curves (90 nM-4.57 pM or 30 nM-1.52 pM) were generated for AKT and/or ERK phosphorylation in primary human and mouse cortical astrocytic cultures in response to a 10-minute treatment with ozanimod, Compound 3, Compound 1, or FTY720-P. AKT and ERK phosphorylation were quantified using AlphaLISA SureFire Ultra Assay kits and the EnVision Plate Reader. AKT and ERK phosphorylation within treated astrocytes were expressed as the mean change in signal intensity compared to the dimethyl sulfoxide (DMSO) vehicle and the half maximal effective concentration (EC50) was determined using non-linear regression.
Primary human astrocytes were purchased from ScienCell Research Laboratories, Inc. and cultured according to the supplier's protocol. The astrocytes were obtained from the human cerebral cortex, cryopreserved at passage one, and delivered frozen. The frozen vials of cells were gently thawed in a 37° C. water bath. Once the contents of the vial were completely thawed, the cell solution was dispensed into a poly-L-lysine (PLL) coated T75 tissue culture flask with 16 mL of human Astrocyte Media, (ScienCell Research Laboratories, Inc.) and incubated at 37° C. 5% CO2. Once the human astrocytes had reached confluency in the T75 flask, they were detached using trypsin/EDTA 0.25%, pelleted at 300×g, split into two PLL coated T225 tissue culture flasks in 40 mL of astrocyte media, and incubated at 37° C. 5% CO2. Once the astrocytes reached confluency in the T225 flasks, they were detached using trypsin/EDTA 0.25% solution, pelleted at 300×g, plated into poly-D-lysine (PDL) coated 96-well plates at a density of 10,000 cells per well in 200 μL human Astrocyte Media, and incubated at 37° C. 5% CO2. Half of the media was replenished every 3-4 days. After 5-7 days of incubation, the P2 human astrocyte plates were utilized for the pERK and pAKT assays.
Cell lysis and detection of pERK were performed according to the PerkinElmer AlphaLISA SureFire Ultra p-ERK1/2 (Thr202/TYR 204) assay protocol. Astrocytes were lysed in the 96-well plate following a 10 minute incubation with compounds with shaking at RT. The astrocytic lysates (10 μL/well) were transferred into a 384-well OptiPlate. As specified by the assay protocol, an acceptor bead mix and a donor bead mix (5 μL/well for each) were added to the plate under subdued light. Plates were sealed with adhesive plate seals and incubated in the dark for 2 hours at RT. The plates were read on the EnVision Plate Reader to assess the pERK levels.
The AKT and ERK phosphorylation data, collected by a Perkin Elmer EnVision Microplate Reader, was analyzed by non-linear regression (GraphPad Prism, version 7.03) to determine the EC50 values.

Take `CC(C)Oc1ccc(-c2nc(-c3cccc4c3CCC4=O)no2)cc1C#N` [Compound 1, 2-isopropoxy-5-(3-(1-oxo-2,3-dihydro-1H-inden-4-yl)-1,2,4-oxadiazol-5-yl)benzonitrile]: the EC50 in experiment [1] was found to be 0.29 nM; in experiment [2] it was 0.66 nM; in experiment [3], 2.12 nM.
In the case of `CC(C)Oc1ccc(-c2nc(-c3cccc4c3CC[C@@H]4NCCO)no2)cc1C#N` [Ozanimod], the EC50 was found to be 0.8 nM in experiment [1], 2.03 nM in experiment [2] and 1.93 nM in experiment [3].

The values are drawn from patent US11207301B2, “Sphingosine 1 phosphate receptor agonists for neuroprotection” (RECEPTOS LLC, priority 2017, dated 2021).
